Details in all cases: at 10 µM
Test [1] has as its target Hepatocyte growth factor-like protein (Homo sapiens) (UniProt P26927). Nature of the test: Selectivity interaction (KinomeScan (DiscoverX)) EUB0000607a MST1.
Test [2] has as its target Insulin receptor-related protein (Homo sapiens) (UniProt P14616).
Test [3] concerns the target Ribosomal protein S6 kinase alpha-1 (Homo sapiens, UniProt Q15418).
Test [4] addresses T1, Tyrosine-protein kinase Mer (Homo sapiens) (UniProt Q12866).
T1 sequence (whole entry): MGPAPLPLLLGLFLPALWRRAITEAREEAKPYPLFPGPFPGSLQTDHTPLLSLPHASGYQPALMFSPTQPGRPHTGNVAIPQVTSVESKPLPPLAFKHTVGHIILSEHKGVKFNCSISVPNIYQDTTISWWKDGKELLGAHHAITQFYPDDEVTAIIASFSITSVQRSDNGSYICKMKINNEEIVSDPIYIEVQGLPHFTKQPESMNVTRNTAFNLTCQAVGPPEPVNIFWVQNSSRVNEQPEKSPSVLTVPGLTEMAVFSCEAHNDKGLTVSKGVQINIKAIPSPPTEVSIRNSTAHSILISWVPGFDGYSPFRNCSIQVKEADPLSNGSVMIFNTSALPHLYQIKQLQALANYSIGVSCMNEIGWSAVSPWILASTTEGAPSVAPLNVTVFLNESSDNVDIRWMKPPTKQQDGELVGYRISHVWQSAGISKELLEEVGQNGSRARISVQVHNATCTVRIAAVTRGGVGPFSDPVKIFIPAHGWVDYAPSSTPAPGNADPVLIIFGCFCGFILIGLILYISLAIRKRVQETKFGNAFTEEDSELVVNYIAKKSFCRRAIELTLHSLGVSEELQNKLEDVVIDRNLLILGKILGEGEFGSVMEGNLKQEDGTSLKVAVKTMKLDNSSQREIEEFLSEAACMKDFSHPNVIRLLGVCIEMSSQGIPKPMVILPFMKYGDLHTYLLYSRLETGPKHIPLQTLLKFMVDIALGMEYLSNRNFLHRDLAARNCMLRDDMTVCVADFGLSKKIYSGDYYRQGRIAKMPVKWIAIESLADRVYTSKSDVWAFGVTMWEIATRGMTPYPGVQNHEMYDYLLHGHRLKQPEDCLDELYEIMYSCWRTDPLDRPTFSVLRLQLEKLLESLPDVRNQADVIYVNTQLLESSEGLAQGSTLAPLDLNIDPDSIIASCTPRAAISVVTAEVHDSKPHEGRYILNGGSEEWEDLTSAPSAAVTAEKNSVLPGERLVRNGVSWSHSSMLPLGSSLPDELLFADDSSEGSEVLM
Nature of the test: Selectivity interaction (KinomeScan (DiscoverX)) EUB0000666a MERTK.

In test [5] the target is Phosphorylase b kinase gamma catalytic chain, skeletal muscle/heart isoform (Homo sapiens) (UniProt Q16816). Nature of the test: Selectivity interaction (KinomeScan (DiscoverX)) EUB0000229b PHKG1.
Test [6] deals with Ribosomal protein S6 kinase alpha-2 (Homo sapiens) (UniProt Q15349). Nature of the test: Selectivity interaction (Millipore kinase profiler) EUB0000124b RPS6KA2.
The target in test [7] is T2, Ephrin type-A receptor 3 (Homo sapiens) (UniProt P29320).
T2 sequence (whole entry): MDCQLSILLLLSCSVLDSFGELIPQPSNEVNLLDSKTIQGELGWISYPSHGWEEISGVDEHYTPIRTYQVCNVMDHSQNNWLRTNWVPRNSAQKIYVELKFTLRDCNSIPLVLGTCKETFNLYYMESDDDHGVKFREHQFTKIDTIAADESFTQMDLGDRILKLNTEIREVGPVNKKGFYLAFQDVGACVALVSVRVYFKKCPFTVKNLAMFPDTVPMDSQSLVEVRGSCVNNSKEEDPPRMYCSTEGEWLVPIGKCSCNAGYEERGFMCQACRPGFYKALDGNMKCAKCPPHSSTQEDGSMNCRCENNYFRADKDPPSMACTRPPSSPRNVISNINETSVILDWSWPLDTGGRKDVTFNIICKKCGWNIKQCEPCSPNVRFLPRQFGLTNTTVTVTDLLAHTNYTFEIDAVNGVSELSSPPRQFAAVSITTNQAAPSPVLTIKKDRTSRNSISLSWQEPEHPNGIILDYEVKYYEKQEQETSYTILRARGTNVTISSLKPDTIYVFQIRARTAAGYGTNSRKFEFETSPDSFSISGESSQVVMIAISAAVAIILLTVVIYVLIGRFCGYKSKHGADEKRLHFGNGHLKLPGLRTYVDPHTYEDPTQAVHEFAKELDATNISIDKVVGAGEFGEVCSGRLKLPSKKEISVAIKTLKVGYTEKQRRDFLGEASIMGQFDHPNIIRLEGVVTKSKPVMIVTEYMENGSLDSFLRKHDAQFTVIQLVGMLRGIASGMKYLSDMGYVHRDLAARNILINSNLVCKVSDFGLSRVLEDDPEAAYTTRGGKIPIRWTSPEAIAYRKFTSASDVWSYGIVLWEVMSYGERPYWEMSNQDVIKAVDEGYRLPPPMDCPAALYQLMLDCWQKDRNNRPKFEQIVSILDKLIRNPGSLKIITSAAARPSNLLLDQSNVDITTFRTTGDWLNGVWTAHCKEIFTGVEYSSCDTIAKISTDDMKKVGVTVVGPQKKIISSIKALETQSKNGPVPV
Nature of the test: Selectivity interaction (KinomeScan (DiscoverX)) EUB0000092b EPHA3.

This is an account of results in ChEMBL document CHEMBL5465560, “Selectivity Literature for EUbOPEN Chemogenomic Library” (2024).

Sequence of Ribosomal protein S6 kinase alpha-1 (Q15418 whole entry): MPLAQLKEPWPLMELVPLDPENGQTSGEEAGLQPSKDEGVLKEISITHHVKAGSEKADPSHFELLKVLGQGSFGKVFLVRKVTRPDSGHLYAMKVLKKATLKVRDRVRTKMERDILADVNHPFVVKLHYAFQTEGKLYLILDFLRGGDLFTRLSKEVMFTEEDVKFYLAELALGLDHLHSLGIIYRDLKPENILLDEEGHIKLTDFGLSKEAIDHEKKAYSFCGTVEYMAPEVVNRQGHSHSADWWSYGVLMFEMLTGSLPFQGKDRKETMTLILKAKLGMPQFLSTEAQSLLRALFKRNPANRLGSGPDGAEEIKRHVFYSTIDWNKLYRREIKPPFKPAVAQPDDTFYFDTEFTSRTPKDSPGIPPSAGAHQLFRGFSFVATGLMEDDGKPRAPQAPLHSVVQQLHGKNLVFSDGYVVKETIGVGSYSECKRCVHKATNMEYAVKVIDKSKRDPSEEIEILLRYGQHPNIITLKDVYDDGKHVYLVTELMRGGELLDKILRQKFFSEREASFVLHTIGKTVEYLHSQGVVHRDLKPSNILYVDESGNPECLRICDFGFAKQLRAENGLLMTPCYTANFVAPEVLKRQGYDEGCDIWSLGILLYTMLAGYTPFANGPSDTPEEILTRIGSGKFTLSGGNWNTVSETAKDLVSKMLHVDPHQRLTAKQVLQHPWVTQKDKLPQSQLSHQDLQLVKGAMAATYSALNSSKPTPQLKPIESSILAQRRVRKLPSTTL
Sequence of Insulin receptor-related protein (Homo sapiens) (P14616 27-742 limits assumed): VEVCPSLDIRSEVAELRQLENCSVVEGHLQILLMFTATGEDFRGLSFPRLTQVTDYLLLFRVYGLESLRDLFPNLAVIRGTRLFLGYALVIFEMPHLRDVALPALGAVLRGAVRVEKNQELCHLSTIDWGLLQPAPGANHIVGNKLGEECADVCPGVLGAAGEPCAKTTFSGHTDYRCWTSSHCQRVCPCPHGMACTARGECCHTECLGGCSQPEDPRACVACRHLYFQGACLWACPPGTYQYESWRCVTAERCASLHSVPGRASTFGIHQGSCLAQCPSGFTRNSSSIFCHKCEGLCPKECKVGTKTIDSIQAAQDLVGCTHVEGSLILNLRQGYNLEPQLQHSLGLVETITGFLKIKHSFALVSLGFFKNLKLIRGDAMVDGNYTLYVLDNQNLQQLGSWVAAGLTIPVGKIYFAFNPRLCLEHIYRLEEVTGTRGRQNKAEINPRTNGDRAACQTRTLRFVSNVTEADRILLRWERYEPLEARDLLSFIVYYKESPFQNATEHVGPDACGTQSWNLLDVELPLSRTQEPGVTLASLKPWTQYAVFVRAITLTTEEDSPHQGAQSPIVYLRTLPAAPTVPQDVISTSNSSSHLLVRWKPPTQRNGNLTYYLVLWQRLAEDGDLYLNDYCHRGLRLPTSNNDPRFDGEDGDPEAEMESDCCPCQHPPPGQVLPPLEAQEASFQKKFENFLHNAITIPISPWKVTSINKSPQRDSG
Sequence of Insulin receptor-related protein (Homo sapiens) (P14616 747-1297 limits assumed): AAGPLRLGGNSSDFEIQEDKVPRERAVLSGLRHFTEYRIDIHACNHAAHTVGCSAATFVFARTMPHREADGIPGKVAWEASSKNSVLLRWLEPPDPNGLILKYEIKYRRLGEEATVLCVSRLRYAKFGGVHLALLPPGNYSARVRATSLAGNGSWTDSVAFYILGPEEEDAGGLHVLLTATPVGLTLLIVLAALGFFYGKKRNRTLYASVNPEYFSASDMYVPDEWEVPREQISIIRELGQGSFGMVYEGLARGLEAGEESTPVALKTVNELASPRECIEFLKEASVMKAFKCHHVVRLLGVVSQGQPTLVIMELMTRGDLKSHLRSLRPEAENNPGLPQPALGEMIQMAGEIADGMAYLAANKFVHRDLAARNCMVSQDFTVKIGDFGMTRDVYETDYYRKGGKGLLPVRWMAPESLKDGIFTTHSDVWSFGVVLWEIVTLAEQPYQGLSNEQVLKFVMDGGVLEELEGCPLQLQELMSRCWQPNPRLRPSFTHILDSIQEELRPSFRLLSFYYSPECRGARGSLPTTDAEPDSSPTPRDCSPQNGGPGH
Sequence of Ribosomal protein S6 kinase alpha-2 (Homo sapiens) (Q15349 whole entry): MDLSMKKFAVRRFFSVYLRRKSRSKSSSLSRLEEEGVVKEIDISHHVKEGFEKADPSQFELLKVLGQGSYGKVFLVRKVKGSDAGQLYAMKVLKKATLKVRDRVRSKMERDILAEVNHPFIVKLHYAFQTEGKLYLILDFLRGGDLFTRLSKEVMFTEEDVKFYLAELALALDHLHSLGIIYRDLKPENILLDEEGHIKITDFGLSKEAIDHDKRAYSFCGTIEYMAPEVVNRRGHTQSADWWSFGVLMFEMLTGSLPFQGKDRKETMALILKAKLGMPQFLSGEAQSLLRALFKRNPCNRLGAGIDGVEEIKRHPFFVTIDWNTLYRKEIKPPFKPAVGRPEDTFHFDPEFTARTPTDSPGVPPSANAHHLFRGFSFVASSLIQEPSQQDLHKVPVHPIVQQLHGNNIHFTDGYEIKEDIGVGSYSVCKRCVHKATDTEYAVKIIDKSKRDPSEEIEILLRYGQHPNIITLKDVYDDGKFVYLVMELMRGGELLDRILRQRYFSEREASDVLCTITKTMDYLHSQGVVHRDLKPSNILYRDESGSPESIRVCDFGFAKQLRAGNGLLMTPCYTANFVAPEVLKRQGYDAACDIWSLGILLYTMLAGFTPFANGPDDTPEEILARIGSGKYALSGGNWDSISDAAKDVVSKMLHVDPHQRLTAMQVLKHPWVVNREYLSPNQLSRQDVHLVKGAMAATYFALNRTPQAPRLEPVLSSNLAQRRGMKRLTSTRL
Sequence of Phosphorylase b kinase gamma catalytic chain, skeletal muscle/heart isoform (Homo sapiens) (Q16816 whole entry, looked up, canonical isoform): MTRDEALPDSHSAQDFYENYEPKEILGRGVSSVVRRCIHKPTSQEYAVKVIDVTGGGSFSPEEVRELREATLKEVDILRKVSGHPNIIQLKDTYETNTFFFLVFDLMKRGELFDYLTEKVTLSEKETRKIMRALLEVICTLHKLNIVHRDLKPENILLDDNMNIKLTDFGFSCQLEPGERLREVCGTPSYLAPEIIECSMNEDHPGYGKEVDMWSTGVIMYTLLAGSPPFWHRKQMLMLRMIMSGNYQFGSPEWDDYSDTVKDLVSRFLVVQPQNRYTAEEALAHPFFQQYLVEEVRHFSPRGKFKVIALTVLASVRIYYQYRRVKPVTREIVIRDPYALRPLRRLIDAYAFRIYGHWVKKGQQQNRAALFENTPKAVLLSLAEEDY

On to `CNC(=O)Nc1ccc(-c2nc(N3CC4CCC(C3)O4)c3cnn(C4CCC5(CC4)OCCO5)c3n2)cc1`, for which, in test [1], the % of control amounted to 100%.

In the case of `Cc1cc([C@@H](C)Nc2ccccc2C(=O)O)c2nc(N3CCOCC3)cc(=O)n2c1` [AZD-6482], the % of control in test [2] came out at 100%; in test [3] it was 84%. In the case of `O=C(NOC[C@H](O)CO)c1ccc(F)c(F)c1Nc1ccc(I)cc1F`, the % of control in test [4] turned out to be 100%. In turn, `COc1cc(N(C)c2ccnc3ccc(C(F)(F)F)cc23)cc(OC)c1OC` displayed a % binding in test [5] of 100%. Consider `CC(=O)Nc1cccc(-n2c(=O)n(C3CC3)c(=O)c3c(Nc4ccc(I)cc4F)n(C)c(=O)c(C)c32)c1`, for which, in test [6], the % of control was 102%.

In turn, `CCC(=O)N1CCN(c2ccc(-n3c(=O)ccc4cnc5ccc(-c6cnc7ccccc7c6)cc5c43)cc2C(F)(F)F)CC1` showed a % of control in test [7] of 70%.
